Source: paper PMC5218480 (PLoS ONE, 2017)

Tested on: MV-4-11 cells
Experiment: Gene expression microarray analysis (Affymetrix PrimeView) and GSEA
Format: cell-based, human
Design: RFU PODN (11730768_x_at) / Fold change /veh PODN (11730768_x_at) / RFU LINC00158 (11744669_a_at) / Fold change /veh LINC00158 (11744669_a_at) / RFU DUSP10 (11751237_a_at) / Fold change /veh DUSP10 (11751237_a_at) / RFU ID3 (11757404_x_at) / Fold change /veh ID3 (11757404_x_at) / RFU PLEKHG5 (11737974_s_at) / Fold change /veh PLEKHG5 (11737974_s_at) / RFU LRRC4B (11730491_at) / Fold change /veh LRRC4B (11730491_at) / RFU GIMAP4 (11747438_a_at) / Fold change /veh GIMAP4 (11747438_a_at) / RFU KRT8 (11758183_x_at) / Fold change /veh KRT8 (11758183_x_at) / RFU CNN1 (11734310_a_at) / Fold change /veh CNN1 (11734310_a_at) / RFU VPS37D (11726825_at) / Fold change /veh VPS37D (11726825_at) / RFU C10orf10 (11716522_x_at) / Fold change /veh C10orf10 (11716522_x_at) / RFU KIR2DL2 /// KIR2DL4 /// KIR2DL5A /// KIR2DL5B /// KIR2DS1 /// KIR2DS2 /// KIR2DS3 /// KIR2DS4 /// KIR3DL3 /// KIR3DL3 /// KIR3DS1 (11738374_at) / Fold change /veh KIR2DL2 /// KIR2DL4 /// KIR2DL5A /// KIR2DL5B /// KIR2DS1 /// KIR2DS2 /// KIR2DS3 /// KIR2DS4 /// KIR3DL3 /// KIR3DL3 /// KIR3DS1 (11738374_at) / RFU C1QL1 (11718748_at) / Fold change /veh C1QL1 (11718748_at) / RFU TMPRSS4 (11747572_a_at) / Fold change /veh TMPRSS4 (11747572_a_at) / RFU HAMP (11756126_x_at) / Fold change /veh HAMP (11756126_x_at) / RFU RNFT2 (11725882_a_at) / Fold change /veh RNFT2 (11725882_a_at) / RFU NR4A2 (11747474_a_at) / Fold change /veh NR4A2 (11747474_a_at) / RFU ABCC12 (11746883_a_at) / Fold change /veh ABCC12 (11746883_a_at) / RFU TMEM136 (11760407_x_at) / Fold change /veh TMEM136 (11760407_x_at) / RFU CLDN22 /// WWC2 (11732394_at) / Fold change /veh CLDN22 /// WWC2 (11732394_at) / RFU HLA-DPB1 (11760878_x_at) / Fold change /veh HLA-DPB1 (11760878_x_at) / RFU SPINT1 (11716480_a_at) / Fold change /veh SPINT1 (11716480_a_at) / RFU GAP43 (11754022_s_at) / Fold change /veh GAP43 (11754022_s_at) / RFU A4GNT (11735810_at) / Fold change /veh A4GNT (11735810_at) / RFU PRB3 (11715151_x_at) / Fold change /veh PRB3 (11715151_x_at) / RFU TUBB4B (11761932_at) / Fold change /veh TUBB4B (11761932_at) / RFU CAPN14 (11732068_a_at) / Fold change /veh CAPN14 (11732068_a_at) / RFU TMCC2 (11721928_a_at) / Fold change /veh TMCC2 (11721928_a_at) / RFU IRGQ (11745062_a_at) / Fold change /veh IRGQ (11745062_a_at) / RFU FAM174B (11720279_a_at) / Fold change /veh FAM174B (11720279_a_at) / RFU TMPRSS4 (11748680_a_at) / Fold change /veh TMPRSS4 (11748680_a_at) / RFU FAM212B (11763350_a_at) / Fold change /veh FAM212B (11763350_a_at) / RFU PLEKHG5 (11743358_a_at) / Fold change /veh PLEKHG5 (11743358_a_at) / RFU ZSCAN30 (11745921_a_at) / Fold change /veh ZSCAN30 (11745921_a_at) / RFU CMKLR1 (11741424_a_at) / Fold change /veh CMKLR1 (11741424_a_at) / RFU LOC101060620 /// MAPK8IP1 (11723275_at) / Fold change /veh LOC101060620 /// MAPK8IP1 (11723275_at) / RFU SPTSSB (11747773_x_at) / Fold change /veh SPTSSB (11747773_x_at) / RFU PRSS12 (11739890_at) / Fold change /veh PRSS12 (11739890_at) / RFU BIN1 (11741810_x_at) / Fold change /veh BIN1 (11741810_x_at) / RFU WNT11 (11732464_a_at) / Fold change /veh WNT11 (11732464_a_at) / RFU C10orf10 (11716521_a_at) / Fold change /veh C10orf10 (11716521_a_at) / RFU C5orf56 (11738089_at) / Fold change /veh C5orf56 (11738089_at) / RFU CYB561 (11721691_x_at) / Fold change /veh CYB561 (11721691_x_at) / RFU ANKRD19P (11752326_a_at) / Fold change /veh ANKRD19P (11752326_a_at) / RFU OR2T12 /// OR2T33 /// OR2T8 (11738714_s_at) / Fold change /veh OR2T12 /// OR2T33 /// OR2T8 (11738714_s_at) / RFU VCAN (11748164_a_at) / Fold change /veh VCAN (11748164_a_at) / RFU JSRP1 (11732532_at) / Fold change /veh JSRP1 (11732532_at) / RFU KRTAP10-11 (11738290_x_at) / Fold change /veh KRTAP10-11 (11738290_x_at) / RFU MYO3A (11730013_a_at) / Fold change /veh MYO3A (11730013_a_at) / RFU EBF3 (11725865_a_at) / Fold change /veh EBF3 (11725865_a_at) / RFU CAMK2N1 (11719241_x_at) / Fold change /veh CAMK2N1 (11719241_x_at) / RFU C5orf56 (11738088_a_at) / Fold change /veh C5orf56 (11738088_a_at) / RFU OLFML3 (11715873_a_at) / Fold change /veh OLFML3 (11715873_a_at) / RFU LOC100653217 /// NTM (11731650_a_at) / Fold change /veh LOC100653217 /// NTM (11731650_a_at) / RFU MAPK11 (11762145_a_at) / Fold change /veh MAPK11 (11762145_a_at) / RFU FIZ1 (11724087_x_at) / Fold change /veh FIZ1 (11724087_x_at) / RFU OASL (11726364_x_at) / Fold change /veh OASL (11726364_x_at) / RFU SOX15 (11748057_x_at) / Fold change /veh SOX15 (11748057_x_at) / RFU CD79A (11719716_a_at) / Fold change /veh CD79A (11719716_a_at) / RFU HIST1H1D (11736915_at) / Fold change /veh HIST1H1D (11736915_at) / RFU CASKIN2 (11723855_a_at) / Fold change /veh CASKIN2 (11723855_a_at) / RFU LOC730098 (11760151_x_at) / Fold change /veh LOC730098 (11760151_x_at) / RFU OR4N2 (11742367_at) / Fold change /veh OR4N2 (11742367_at) / RFU PRRT2 (11749266_a_at) / Fold change /veh PRRT2 (11749266_a_at) / RFU SNX32 (11753110_a_at) / Fold change /veh SNX32 (11753110_a_at) / RFU CDHR5 (11726645_a_at) / Fold change /veh CDHR5 (11726645_a_at) / RFU RCAN1 (11760418_a_at) / Fold change /veh RCAN1 (11760418_a_at) / RFU FAM167A (11723789_a_at) / Fold change /veh FAM167A (11723789_a_at) / RFU FAM26E (11764081_at) / Fold change /veh FAM26E (11764081_at) / RFU ISYNA1 (11749810_s_at) / Fold change /veh ISYNA1 (11749810_s_at) / RFU ACY1 (11761880_at) / Fold change /veh ACY1 (11761880_at) / RFU 11764098_at / Fold change /veh 11764098_at / RFU SAMD14 (11745864_x_at) / Fold change /veh SAMD14 (11745864_x_at) / RFU NPB (11741838_a_at) / Fold change /veh NPB (11741838_a_at) / RFU TMPRSS6 (11731388_a_at) / Fold change /veh TMPRSS6 (11731388_a_at) / RFU KRTAP10-2 (11738614_at) / Fold change /veh KRTAP10-2 (11738614_at) / RFU ARHGAP8 /// PRR5-ARHGAP8 (11727945_x_at) / Fold change /veh ARHGAP8 /// PRR5-ARHGAP8 (11727945_x_at) / RFU KRTAP5-7 /// NADSYN1 (11734609_at) / Fold change /veh KRTAP5-7 /// NADSYN1 (11734609_at) / RFU RASL12 (11751679_a_at) / Fold change /veh RASL12 (11751679_a_at) / RFU CDKN2B (11736163_a_at) / Fold change /veh CDKN2B (11736163_a_at) / RFU PRF1 (11729649_at) / Fold change /veh PRF1 (11729649_at) / RFU, ZNF638 /// ZNF638-IT1 / Fold change vs veh, ZNF638 /// ZNF638-IT1 / RFU, PANK3 / Fold change vs veh, PANK3 / RFU, SH3YL1 / Fold change vs veh, SH3YL1 / RFU, ZEB2 / Fold change vs veh, ZEB2 / RFU, NRIP1 / Fold change vs veh, NRIP1 / RFU, PTTG1IP / Fold change vs veh, PTTG1IP / RFU, CAPN2 / Fold change vs veh, CAPN2 / RFU, MED14 / Fold change vs veh, MED14 / RFU, SNORA58 / Fold change vs veh, SNORA58 / RFU, C1orf63 / Fold change vs veh, C1orf63 / RFU, LRRFIP1 / Fold change vs veh, LRRFIP1 / RFU, NDUFAF7 / Fold change vs veh, NDUFAF7 / RFU, SLC12A2 / Fold change vs veh, SLC12A2 / RFU, IBTK / Fold change vs veh, IBTK / RFU, ESF1 / Fold change vs veh, ESF1 / Fold change vs veh, TMEM50B / RFU, TAOK1 / Fold change vs veh, TAOK1 / RFU, ACBD3 / Fold change vs veh, ACBD3 / RFU, TMA16 / Fold change vs veh, TMA16 / RFU, RWDD3 / Fold change vs veh, RWDD3 / RFU, BCAT1 / Fold change vs veh, BCAT1 / RFU, EDEM3 / Fold change vs veh, EDEM3 / RFU, TMEM33 / Fold change vs veh, TMEM33 / RFU, WDR75 / Fold change vs veh, WDR75 / RFU, AHCTF1 / Fold change vs veh, AHCTF1 / RFU, TFRC / Fold change vs veh, TFRC / RFU, ZDHHC17 / Fold change vs veh, ZDHHC17 / RFU, NOM1 / Fold change vs veh, NOM1 / RFU, ARL8B / Fold change vs veh, ARL8B / RFU, ZBTB11 / Fold change vs veh, ZBTB11 / RFU, TAMM41 / Fold change vs veh, TAMM41 / RFU, KIAA1704 /// LOC100996395 / Fold change vs veh, KIAA1704 /// LOC100996395 / RFU, ING1 / Fold change vs veh, ING1 / RFU, TRMT61B / Fold change vs veh, TRMT61B / RFU, FUBP3 / Fold change vs veh, FUBP3 / RFU, TP53 / Fold change vs veh, TP53 / RFU, TNKS2 / Fold change vs veh, TNKS2 / RFU, ZFP14 / Fold change vs veh, ZFP14 / RFU, ACTR2 / Fold change vs veh, ACTR2 / RFU, PPP3R1 / Fold change vs veh, PPP3R1 / RFU, PIK3R1 / Fold change vs veh, PIK3R1 / RFU, HNRNPA1 / Fold change vs veh, HNRNPA1 / RFU, RNF170 / Fold change vs veh, RNF170 / RFU, ZNF28 / Fold change vs veh, ZNF28 / RFU, RNGTT / Fold change vs veh, RNGTT / RFU, OGT / Fold change vs veh, OGT / RFU, BRD1 / Fold change vs veh, BRD1 / RFU, MARS / Fold change vs veh, MARS / RFU, ZNF655 / Fold change vs veh, ZNF655 / RFU, FAHD1 / Fold change vs veh, FAHD1 / RFU, BDP1 / Fold change vs veh, BDP1 / RFU, LRRCC1 / Fold change vs veh, LRRCC1 / RFU, ARID1A / Fold change vs veh, ARID1A / RFU, ZNF146 / Fold change vs veh, ZNF146 / RFU, ZNF330 / Fold change vs veh, ZNF330 / RFU, GPN3 / Fold change vs veh, GPN3 / RFU, C9orf123 / Fold change vs veh, C9orf123 / RFU, N4BP2L2 / Fold change vs veh, N4BP2L2 / RFU, ARFIP1 / Fold change vs veh, ARFIP1 / RFU, FAM179B / Fold change vs veh, FAM179B / RFU, BCL10 / Fold change vs veh, BCL10 / RFU, UHRF1BP1L / Fold change vs veh, UHRF1BP1L / RFU, BET1 / Fold change vs veh, BET1 / RFU, CNOT2 / Fold change vs veh, CNOT2 / RFU, ZNF268 / Fold change vs veh, ZNF268 / Fold change vs veh, ZNF507 / RFU, DGCR2 / Fold change vs veh, DGCR2 / RFU, WDSUB1 / Fold change vs veh, WDSUB1 / Fold change vs veh, HSP90B1 /// MIR3652 / RFU, ADSS / Fold change vs veh, ADSS / RFU, GK / Fold change vs veh, GK / RFU, ZNF148 / Fold change vs veh, ZNF148 / RFU, TAF9 / Fold change vs veh, TAF9 / RFU, SLC1A5 / Fold change vs veh, SLC1A5 / RFU, SLMO2 / Fold change vs veh, SLMO2 / RFU, ABCC4 / Fold change vs veh, ABCC4 / RFU, LOC101060439 /// RAP1B / Fold change vs veh, LOC101060439 /// RAP1B / RFU, RFX7 / Fold change vs veh, RFX7 / RFU, GTPBP10 / Fold change vs veh, GTPBP10 / RFU, CNEP1R1 / Fold change vs veh, CNEP1R1 / RFU, BIVM-ERCC5 /// ERCC5 / Fold change vs veh, BIVM-ERCC5 /// ERCC5 / RFU, ILF3 / Fold change vs veh, ILF3 / RFU 11762660_at / Fold change /veh 11762660_at / RFU VCAN (11757783_s_at) / Fold change /veh VCAN (11757783_s_at) / RFU DDX43 (11728927_at) / Fold change /veh DDX43 (11728927_at) / RFU KRT8 (11758188_x_at) / Fold change /veh KRT8 (11758188_x_at) / RFU NKD1 (11759106_at) / Fold change /veh NKD1 (11759106_at) / RFU SRD5A1 (11742802_a_at) / Fold change /veh SRD5A1 (11742802_a_at) / RFU TPSAB1 /// TPSB2 (11721975_s_at) / Fold change /veh TPSAB1 /// TPSB2 (11721975_s_at) / RFU GSTM3 (11746129_a_at) / Fold change /veh GSTM3 (11746129_a_at) / RFU IL23R (11737362_x_at) / Fold change /veh IL23R (11737362_x_at) / RFU TMEM51 (11727254_a_at) / Fold change /veh TMEM51 (11727254_a_at) / RFU PIWIL2 (11732686_x_at) / Fold change /veh PIWIL2 (11732686_x_at) / RFU ORM1 (11744905_x_at) / Fold change /veh ORM1 (11744905_x_at) / RFU CCDC152 (11743942_at) / Fold change /veh CCDC152 (11743942_at) / RFU ECM1 (11717891_a_at) / Fold change /veh ECM1 (11717891_a_at) / RFU IL23R (11748794_a_at) / Fold change /veh IL23R (11748794_a_at) / RFU TNFAIP8L3 (11732012_x_at) / Fold change /veh TNFAIP8L3 (11732012_x_at) / RFU MBOAT4 (11741988_at) / Fold change /veh MBOAT4 (11741988_at) / RFU 11764193_at / Fold change /veh 11764193_at / RFU TMEM53 (11763286_at) / Fold change /veh TMEM53 (11763286_at) / RFU MAGEB2 (11727129_at) / Fold change /veh MAGEB2 (11727129_at) / RFU TMEM200A (11744735_a_at) / Fold change /veh TMEM200A (11744735_a_at) / RFU CCDC152 (11751479_a_at) / Fold change /veh CCDC152 (11751479_a_at) / RFU FAM211A (11726209_a_at) / Fold change /veh FAM211A (11726209_a_at) / RFU RGS16 (11746705_a_at) / Fold change /veh RGS16 (11746705_a_at) / RFU VCAN (11755009_s_at) / Fold change /veh VCAN (11755009_s_at) / RFU RHOB (11743442_s_at) / Fold change /veh RHOB (11743442_s_at) / RFU RGS16 (11720943_a_at) / Fold change /veh RGS16 (11720943_a_at) / RFU RGS16 (11720944_at) / Fold change /veh RGS16 (11720944_at) / RFU, VPS4B / Fold change vs veh, VPS4B / RFU, CREB1 / Fold change vs veh, CREB1 / RFU, DNAJC13 / Fold change vs veh, DNAJC13 / RFU, GNAQ / Fold change vs veh, GNAQ / RFU, CDK5R1 / Fold change vs veh, CDK5R1 / RFU, ZRANB3 / Fold change vs veh, ZRANB3 / RFU, CUL4A / Fold change vs veh, CUL4A / RFU, CCNY / Fold change vs veh, CCNY / RFU, UFL1 / Fold change vs veh, UFL1 / RFU, COG3 / Fold change vs veh, COG3 / RFU, DIAPH2 / Fold change vs veh, DIAPH2 / RFU, SKA2 / Fold change vs veh, SKA2 / RFU, AFF3 / Fold change vs veh, AFF3 / RFU, LMF1 / Fold change vs veh, LMF1 / RFU, IPO11 / Fold change vs veh, IPO11 / RFU, DFFB / Fold change vs veh, DFFB / RFU, FOXP1 / Fold change vs veh, FOXP1 / RFU, CARD8 / Fold change vs veh, CARD8 / RFU, STRN3 / Fold change vs veh, STRN3 / RFU, ADK / Fold change vs veh, ADK / RFU, RASSF2 / Fold change vs veh, RASSF2 / RFU, WIPF1 / Fold change vs veh, WIPF1 / RFU, LARP1B / Fold change vs veh, LARP1B / RFU, RASA1 / Fold change vs veh, RASA1 / RFU, RB1 / Fold change vs veh, RB1 / RFU, PPFIA1 / Fold change vs veh, PPFIA1 / RFU, MAT2A / Fold change vs veh, MAT2A / RFU, CCT5 / Fold change vs veh, CCT5 / RFU, WDR92 / Fold change vs veh, WDR92 / RFU, CUX1 / Fold change vs veh, CUX1 / RFU, TTC7A / Fold change vs veh, TTC7A / RFU, TMEM135 / Fold change vs veh, TMEM135 / RFU, DEPTOR / Fold change vs veh, DEPTOR / RFU, CPM / Fold change vs veh, CPM / RFU, DNAJB6 / Fold change vs veh, DNAJB6 / RFU, CACNA2D3 / Fold change vs veh, CACNA2D3 / RFU, DTX4 / Fold change vs veh, DTX4 / RFU, TFCP2 / Fold change vs veh, TFCP2 / RFU, GMCL1 /// GMCL1P1 / Fold change vs veh, GMCL1 /// GMCL1P1 / RFU, AEBP2 / Fold change vs veh, AEBP2 / RFU, SNHG1 /// SNORD22 /// SNORD25 /// SNORD26 /// SNORD27 /// SNORD28 /// SNORD29 /// SNORD31 / Fold change vs veh, SNHG1 /// SNORD22 /// SNORD25 /// SNORD26 /// SNORD27 /// SNORD28 /// SNORD29 /// SNORD31 / Fold change (Aza/veh), C12orf56 (ProbeSet 11735607_a_at) / Fold change (ACY-1035/veh), C12orf56 (ProbeSet 11735607_a_at) / Fold change (Aza/veh), FGFR1OP (ProbeSet 11751329_s_at) / Fold change (ACY-1035/veh), FGFR1OP (ProbeSet 11751329_s_at) / Fold change (Aza/veh), VPS36 (ProbeSet 11739960_a_at) / Fold change (ACY-1035/veh), VPS36 (ProbeSet 11739960_a_at) / RFU SYPL1 (11715823_x_at) / Fold change /veh SYPL1 (11715823_x_at) / RFU IGFBP7 (11715501_s_at) / Fold change /veh IGFBP7 (11715501_s_at) / RFU REEP3 (11722064_at) / Fold change /veh REEP3 (11722064_at) / RFU IGLL1 (11728026_x_at) / Fold change /veh IGLL1 (11728026_x_at): dose or concentration left out as unconfirmed
Settings: ProbeSet 11759095_at; LIST D

Compound: Nc1ccc(-c2cccs2)cc1NC(=O)c1ccc2c(c1)cc(C1CC1)n2CCN1CCOCC1 [ACY-1035]
- RFU, GNAQ: 901.39 RFU
